Source: patent US12655125B2 (SIRONAX LTD., priority 2020, dated 2026)

These compounds were tested on HT-29 cells (assay: HT29 Cells 0FBS Assay In Vitro (TNF-α/SMAC mimetic/zVAD-FMK induced necroptosis, CellTiter-Glo cell viability)). Conditions: Homo sapiens; HT-29 cells, FBS free medium, TNF-α (10 ng/ml), SMAC mimetic (6 uM), zVAD-FMK (10 μM), 20 hours; geometric mean EC50; read-out: Cell activity (EC50) of Compounds 1-116.
Assay type: cell-based
In short: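 HT-29 cells (5,000/well, seeded overnight) in serum-free McCoy's 5A were stimulated with TNF-α 10 ng/ml, SMAC mimetic 6 μM and zVAD-FMK 10 μM to induce necroptosis. Compound added as 10-point 3-fold series for 20 h at 37° C. CellTiter-Glo luminescence gives viability; EC50 is geometric mean of duplicate dose-responses.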
With `CNC(=O)Cn1nc(C)c(-c2ncc(F)c(OC3CN(C(=O)N4N=CC[C@H]4c4cc(F)cc(F)c4)C3)n2)c1C` [compound 98, (S)-2-(4-(4-((1-(5-(3,5-difluorophenyl)-4,5-dihydro-1H-pyrazole-1-carbonyl)azetidin-3-yl)oxy)-5-fluoropyrimidin-2-yl)-3,5-dimethyl-1H-pyrazol-1-yl)-N-methylacetamide] the EC50 was 0.1 to 100 nM. In the case of `Cc1ncsc1-c1ccc(F)c(OC2CN(C(=O)N3N=CC[C@H]3c3cc(F)cc(F)c3)C2)n1` [compound 10, (S)-(5-(3,5-difluorophenyl)-4,5-dihydro-1H-pyrazol-1-yl)(3-((3-fluoro-6-(4-methylthiazol-5-yl)pyridin-2-yl)oxy)azetidin-1-yl)methanone], the EC50 is reported as 0.1 to 100 nM. Compound `Cn1ncc(C(=O)N2CCOCC2)c1-c1cc(OC2CN(C(=O)N3N=CC[C@H]3c3cc(F)cc(F)c3)C2)c(F)cn1` [compound 77, (S)-(5-(3,5-difluorophenyl)-4,5-dihydro-1H-pyrazol-1-yl)(3-((5-fluoro-2-(1-methyl-4-(morpholine-4-carbonyl)-1H-pyrazol-5-yl)pyridin-4-yl)oxy)azetidin-1-yl)methanone] has an EC50 of 1000 to 10000 nM. `Cc1ncsc1-c1ncc(F)c(OC2CN(C(=O)N3N=CC[C@H]3c3cc(F)cc(F)c3)C2)n1` [compound 9, (S)-(5-(3,5-difluorophenyl)-4,5-dihydro-1H-pyrazol-1-yl)(3-((5-fluoro-2-(4-methylthiazol-5-yl)pyrimidin-4-yl)oxy)azetidin-1-yl)methanone] gave an EC50 of 0.1 to 100 nM. For `Cc1csnc1-c1ncc(F)c(OC2CN(C(=O)N3N=CC[C@H]3c3cc(F)cc(F)c3)C2)n1` [compound 18, (S)-(5-(3,5-difluorophenyl)-4,5-dihydro-1H-pyrazol-1-yl)(3-((5-fluoro-2-(4-methylisothiazol-3-yl)pyrimidin-4-yl)oxy)azetidin-1-yl)methanone], the EC50 was 0.1 to 100 nM. Compound `Cc1nc(C)n(-c2ccc(F)c(OC3CN(C(=O)N4N=CCC4c4cc(F)cc(F)c4)C3)c2)n1` (stereo not shown) [compound 116] has an EC50 of 0.1 to 100 nM. In the case of `NC(=O)Cn1nccc1-c1ncc(F)c(OC2CN(C(=O)N3N=CC[C@H]3c3cc(F)cc(F)c3)C2)n1` [compound 88, (S)-2-(5-(4-((1-(5-(3,5-difluorophenyl)-4,5-dihydro-1H-pyrazole-1-carbonyl)azetidin-3-yl)oxy)-5-fluoropyrimidin-2-yl)-1H-pyrazol-1-yl)acetamide], the EC50 is reported as 100 to 1000 nM. `Cc1scnc1-c1ncc(F)c(OC2CN(C(=O)N3N=CC[C@H]3c3cc(F)cc(F)c3)C2)n1` [compound 12, (S)-(5-(3,5-difluorophenyl)-4,5-dihydro-1H-pyrazol-1-yl)(3-((5-fluoro-2-(5-methylthiazol-4-yl)pyrimidin-4-yl)oxy)azetidin-1-yl)methanone] showed an EC50 of 0.1 to 100 nM. `Cn1ncc(Cl)c1-c1cc(OC2CN(C(=O)N3N=CC[C@H]3c3cc(F)cc(F)c3)C2)c(F)cn1` [compound 83, (S)-(3-((2-(4-chloro-1-methyl-1H-pyrazol-5-yl)-5-fluoropyridin-4-yl)oxy)azetidin-1-yl)(5-(3,5-difluorophenyl)-4,5-dihydro-1H-pyrazol-1-yl)methanone] gave an EC50 of 0.1 to 100 nM. Compound `Cc1ncsc1-c1cc(OC2CN(C(=O)N3N=CC[C@H]3c3cc(F)cc(F)c3)C2)c(F)cn1` [compound 11, (S)-(5-(3,5-difluorophenyl)-4,5-dihydro-1H-pyrazol-1-yl)(3-((5-fluoro-2-(4-methylthiazol-5-yl)pyridin-4-yl)oxy)azetidin-1-yl)methanone] has an EC50 of 0.1 to 100 nM. With `Cn1ncc(F)c1-c1ncc(F)c(OC2CN(C(=O)N3N=CC[C@H]3c3cc(F)cc(F)c3)C2)n1` [compound 82, (S)-(5-(3,5-difluorophenyl)-4,5-dihydro-1H-pyrazol-1-yl)(3-((5-fluoro-2-(4-fluoro-1-methyl-1H-pyrazol-5-yl)pyrimidin-4-yl)oxy)azetidin-1-yl)methanone] the EC50 was 0.1 to 100 nM.

Same assay, conditions: Homo sapiens; HT-29 cells, FBS free medium, TNF-α (10 ng/ml), SMAC mimetic (6 uM), zVAD-FMK (10 μM), 20 hours; geometric mean EC50; read-out: Cell activity (EC50) of Compounds 117-281
`CCOC(=O)c1[nH]c(C)c(-c2cc(OC3CN(C(=O)N4N=CC[C@H]4c4cc(F)cc(F)c4)C3)c(F)cn2)c1C` [compound 153, Ethyl (S)-4-(4-((1-(5-(3,5-difluorophenyl)-4,5-dihydro-1H-pyrazole-1-carbonyl)azetidin-3-yl)oxy)-5-fluoropyridin-2-yl)-3,5-dimethyl-1H-pyrrole-2-carboxylate] showed an EC50 of 0.1 to 100 nM. `Cc1nn(-c2cc(OC3CN(C(=O)N4N=CC[C@H]4c4cc(F)cc(F)c4)C3)c(F)cn2)c(C)c1C(=O)N[C@H]1CCOC1` [compound 257, 1-(4-((1-((S)-5-(3,5-difluorophenyl)-4,5-dihydro-1H-pyrazole-1-carbonyl)azetidin-3-yl)oxy)-5-fluoropyridin-2-yl)-3,5-dimethyl-N—((S)-tetrahydrofuran-3-yl)-1H-pyrazole-4-carboxamide] was tested, and the EC50 was 0.1 to 100 nM. For `Cc1nn(-c2cc(OC3CN(C(=O)N4N=CC[C@H]4c4cc(F)cc(F)c4)C3)c(F)cn2)c(C)c1C(=O)N1CCCC1` [compound 194, (S)-(5-(3,5-difluorophenyl)-4,5-dihydro-1H-pyrazol-1-yl)(3-((2-(3,5-dimethyl-4-(pyrrolidine-1-carbonyl)-1H-pyrazol-1-yl)-5-fluoropyridin-4-yl)oxy)azetidin-1-yl)methanone], the EC50 was 0.1 to 100 nM. With `Cc1c(C#N)nn(C)c1-c1ccc(F)c(OC2CN(C(=O)N3N=CC[C@H]3c3cc(F)cc(F)c3)C2)n1` [compound 186, (S)-5-(6-((1-(5-(3,5-difluorophenyl)-4,5-dihydro-1H-pyrazole-1-carbonyl)azetidin-3-yl)oxy)-5-fluoropyridin-2-yl)-1,4-dimethyl-1H-pyrazole-3-carbonitrile] the EC50 was 0.1 to 100 nM. `COC(=O)c1cc(C)n(-c2cc(OC3CN(C(=O)N4N=CC[C@H]4c4cc(F)cc(F)c4)C3)c(F)cn2)c1C` [compound 129, methyl (S)-1-(4-((1-(5-(3,5-difluorophenyl)-4,5-dihydro-1H-pyrazole-1-carbonyl)azetidin-3-yl)oxy)-5-fluoropyridin-2-yl)-2,5-dimethyl-1H-pyrrole-3-carboxylate] gave an EC50 of 0.1 to 100 nM. `Cc1noc(C)c1-c1cc(OC2CN(C(=O)N3N=CC[C@H]3c3cc(F)cc(F)c3)C2)c(F)cn1` [compound 268, (S)-(5-(3,5-difluorophenyl)-4,5-dihydro-1H-pyrazol-1-yl)(3-((2-(3,5-dimethylisoxazol-4-yl)-5-fluoropyridin-4-yl)oxy)azetidin-1-yl)methanone] was tested, and the EC50 was 0.1 to 100 nM. `Cn1nc(C(N)=O)cc1-c1cc(OC2CN(C(=O)N3N=CC[C@H]3c3cc(F)cc(F)c3)C2)c(F)cn1` [compound 172, (S)-5-(4-((1-(5-(3,5-difluorophenyl)-4,5-dihydro-1H-pyrazole-1-carbonyl)azetidin-3-yl)oxy)-5-fluoropyridin-2-yl)-1-methyl-1H-pyrazole-3-carboxamide] was tested, and the EC50 was 0.1 to 100 nM. With `Cc1nn(CC2CC2)c(C)c1-c1cc(OC2CN(C(=O)N3N=CC[C@H]3c3cc(F)cc(F)c3)C2)c(F)cn1` [compound 132, (S)-(3-((2-(1-(cyclopropylmethyl)-3,5-dimethyl-1H-pyrazol-4-yl)-5-fluoropyridin-4-yl)oxy)azetidin-1-yl)(5-(3,5-difluorophenyl)-4,5-dihydro-1H-pyrazol-1-yl)methanone] the EC50 was 0.1 to 100 nM. In the case of `Cc1nn(-c2cc(OC3CN(C(=O)N4N=CC[C@H]4c4cc(F)cc(F)c4)C3)c(F)cn2)c(C)c1S(N)(=O)=O` [compound 220, (S)-1-(4-((1-(5-(3,5-difluorophenyl)-4,5-dihydro-1H-pyrazole-1-carbonyl)azetidin-3-yl)oxy)-5-fluoropyridin-2-yl)-3,5-dimethyl-1H-pyrazole-4-sulfonamide], the EC50 is reported as 0.1 to 100 nM. `Cc1nn(CC2CC2)c(C)c1-c1ncc(F)c(OC2CN(C(=O)N3N=CC[C@H]3c3cc(F)cc(F)c3)C2)n1` [compound 158, (S)-(3-((2-(1-(cyclopropylmethyl)-3,5-dimethyl-1H-pyrazol-4-yl)-5-fluoropyrimidin-4-yl)oxy)azetidin-1-yl)(5-(3,5-difluorophenyl)-4,5-dihydro-1H-pyrazol-1-yl)methanone] showed an EC50 of 0.1 to 100 nM. `Cc1nn(C)c(N)c1-c1cc(OC2CN(C(=O)N3N=CC[C@H]3c3cc(F)cc(F)c3)C2)c(F)cn1` [compound 210, (S)-(3-((2-(5-amino-1,3-dimethyl-11H-pyrazol-4-yl)-5-fluoropyridin-4-yl)oxy)azetidin-1-yl)(5-(3,5-difluorophenyl)-4,5-dihydro-1H-pyrazol-1-yl)methanone] gave an EC50 of 0.1 to 100 nM. `CNC(=O)Cc1c(C)nn(-c2cc(OC3CN(C(=O)N4N=CC[C@H]4c4cc(F)cc(F)c4)C3)c(F)cn2)c1C` [compound 226, (S)-2-(1-(4-((1-(5-(3,5-difluorophenyl)-4,5-dihydro-1H-pyrazole-1-carbonyl)azetidin-3-yl)oxy)-5-fluoropyridin-2-yl)-3,5-dimethyl-1H-pyrazol-4-yl)-N-methylacetamide] gave an EC50 of 0.1 to 100 nM. `Cc1nn(-c2cc(OC3CN(C(=O)N4N=CC[C@H]4c4cc(F)cc(F)c4)C3)c(F)cn2)c(C)c1S(=O)(=O)NC1CCOCC1` [compound 241, (S)-1-(4-((1-(5-(3,5-difluorophenyl)-4,5-dihydro-1H-pyrazole-1-carbonyl)azetidin-3-yl)oxy)-5-fluoropyridin-2-yl)-3,5-dimethyl-N-(tetrahydro-2H-pyran-4-yl)-1H-pyrazole-4-sulfonamide] was tested, and the EC50 was 0.1 to 100 nM. With `Cn1ncc(C(N)=O)c1-c1ccc(F)c(OC2CN(C(=O)N3N=CC[C@H]3c3cc(F)cc(F)c3)C2)n1` [compound 149, (S)-5-(6-((1-(5-(3,5-difluorophenyl)-4,5-dihydro-1H-pyrazole-1-carbonyl)azetidin-3-yl)oxy)-5-fluoropyridin-2-yl)-1-methyl-1H-pyrazole-4-carboxamide] the EC50 was 0.1 to 100 nM.
